Data as given in the NIST ThermoML archive (doi:10.1016/j.fluid.2015.08.029).

Test: xn = mol fraction of the nth substance listed
Conditions: Fluid (supercritical or subcritical phases), Buoyancy - hydrostatic balance with magnetic suspension - one sinker, x2 = 0.95

C [methane] + O=C=O
Conditions | mass density [kg/m3]
309.17 K, 9369 kPa | 468.272
309.18 K, 8371.4 kPa | 301.81
310.13 K, 7971.6 kPa | 252.206
310.15 K, 9168.8 kPa | 404.887
310.15 K, 9768.4 kPa | 500.279
310.16 K, 9368.7 kPa | 438.984
310.17 K, 8169.9 kPa | 269.525
310.17 K, 8371.3 kPa | 289.994
310.17 K, 8570.5 kPa | 313.293
310.17 K, 8969.4 kPa | 370.784
310.17 K, 9568.2 kPa | 470.935
310.17 K, 9969.4 kPa | 524.504
310.18 K, 8771.3 kPa | 340.177
311.13 K, 7972.7 kPa | 245.539
311.15 K, 8969.4 kPa | 351.047
311.16 K, 9169.2 kPa | 380.674
311.17 K, 8170.7 kPa | 261.395
311.17 K, 8372.1 kPa | 279.845
311.17 K, 8571.3 kPa | 300.517
311.17 K, 9768.1 kPa | 473.276
311.17 K, 9967.8 kPa | 499.737
311.18 K, 9568.6 kPa | 443.32
311.19 K, 8770.5 kPa | 323.691
311.19 K, 9369 kPa | 411.617
312.13 K, 7972.4 kPa | 239.656
312.17 K, 8771.1 kPa | 310.807
312.17 K, 9568.6 kPa | 418.783
312.17 K, 9768.9 kPa | 448.071
312.17 K, 9967.7 kPa | 475.106
312.18 K, 8571.5 kPa | 289.726
312.18 K, 9169.8 kPa | 360.525
312.19 K, 8172.7 kPa | 254.332
312.19 K, 8372.2 kPa | 270.995
312.19 K, 8970.5 kPa | 334.208
312.19 K, 9369.6 kPa | 388.871
313.14 K, 7973.3 kPa | 234.195
313.17 K, 8571.8 kPa | 280.559
313.17 K, 8771.6 kPa | 299.532
313.17 K, 8970.6 kPa | 320.608
313.17 K, 9170.2 kPa | 344.172
313.17 K, 9369.7 kPa | 369.68
313.17 K, 9768.4 kPa | 424.626
313.18 K, 8171.5 kPa | 247.96
313.18 K, 8372.5 kPa | 263.421
313.18 K, 9569.1 kPa | 396.668
